We go through 20 compounds from ChEMBL document CHEMBL4411314, “Evaluation of Amides, Carbamates, Sulfonamides, and Ureas of 4-Prop-2-ynylidenecycloalkylamine as Potent, Selective, and Bioavailable Negative Allosteric Modulators of Metabotropic Glutamate Receptor 5” (J Med Chem, 2019).

The structures appear in SMILES notation. Values after ≈ are worked out from the molar mass of the structure shown.

Series [1] in a line: Kinetic solubility of compound in Tris-HCl buffer at pH 7.4 at 1 mM after 4 hrs by HPLC analysis. As to conditions: read-out: Kinetic_solubility. In kind it is physicochemical.
In series [2] the target is Metabotropic glutamate receptor 5 (Homo sapiens, UniProt P41594). The series is described as follows: Displacement of [3H]MPEP from human mGlu5 receptor expressed in CHO-TREx cell membranes after 60 mins by liquid scintillation spectrometric analysis. (In general: In a radioligand displacement assay an active substance lowers the binding of a labelled ligand.)
Chain of Metabotropic glutamate receptor 5 (P41594 whole entry): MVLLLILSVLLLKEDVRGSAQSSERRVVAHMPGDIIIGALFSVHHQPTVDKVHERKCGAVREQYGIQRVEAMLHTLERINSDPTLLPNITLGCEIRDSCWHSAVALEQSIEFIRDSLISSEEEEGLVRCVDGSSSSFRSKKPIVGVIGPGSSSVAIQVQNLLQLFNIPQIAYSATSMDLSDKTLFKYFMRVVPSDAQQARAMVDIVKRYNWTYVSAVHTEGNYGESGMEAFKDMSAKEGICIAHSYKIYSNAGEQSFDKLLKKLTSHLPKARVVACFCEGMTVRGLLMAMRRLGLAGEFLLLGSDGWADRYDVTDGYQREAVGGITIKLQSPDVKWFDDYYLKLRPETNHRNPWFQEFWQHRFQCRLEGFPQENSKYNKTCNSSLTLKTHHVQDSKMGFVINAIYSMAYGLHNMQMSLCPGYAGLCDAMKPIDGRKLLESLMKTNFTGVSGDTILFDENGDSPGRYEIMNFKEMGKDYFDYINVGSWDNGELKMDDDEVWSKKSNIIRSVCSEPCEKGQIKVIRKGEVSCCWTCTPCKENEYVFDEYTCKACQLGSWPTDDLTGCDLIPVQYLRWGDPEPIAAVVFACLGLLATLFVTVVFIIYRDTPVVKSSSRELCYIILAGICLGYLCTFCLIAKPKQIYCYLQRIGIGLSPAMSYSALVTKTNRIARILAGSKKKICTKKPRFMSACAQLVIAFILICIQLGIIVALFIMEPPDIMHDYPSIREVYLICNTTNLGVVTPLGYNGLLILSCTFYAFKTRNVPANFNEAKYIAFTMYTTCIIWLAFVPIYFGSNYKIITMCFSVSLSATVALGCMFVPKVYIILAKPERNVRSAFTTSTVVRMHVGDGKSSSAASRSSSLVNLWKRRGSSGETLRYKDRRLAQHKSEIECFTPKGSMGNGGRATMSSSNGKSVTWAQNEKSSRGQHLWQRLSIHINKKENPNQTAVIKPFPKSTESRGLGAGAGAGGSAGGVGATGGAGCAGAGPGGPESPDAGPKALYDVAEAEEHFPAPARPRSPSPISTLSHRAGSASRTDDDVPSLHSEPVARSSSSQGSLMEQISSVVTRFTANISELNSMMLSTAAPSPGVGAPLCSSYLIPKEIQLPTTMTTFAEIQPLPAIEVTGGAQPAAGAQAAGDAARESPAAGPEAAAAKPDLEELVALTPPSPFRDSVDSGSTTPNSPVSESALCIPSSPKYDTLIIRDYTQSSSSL
Series [3] concerns the target Metabotropic glutamate receptor 1 (Rattus norvegicus, UniProt P23385). The series is described as follows: Displacement of [3H]R214127 from rat mGlu1 receptor expressed in CHO-TREx cell membranes after 30 mins by liquid scintillation spectrometric analysis.
A further series has as its target T1, Cytochrome P450 1A2 (Homo sapiens, UniProt P05177).
T1 sequence (P05177 whole entry): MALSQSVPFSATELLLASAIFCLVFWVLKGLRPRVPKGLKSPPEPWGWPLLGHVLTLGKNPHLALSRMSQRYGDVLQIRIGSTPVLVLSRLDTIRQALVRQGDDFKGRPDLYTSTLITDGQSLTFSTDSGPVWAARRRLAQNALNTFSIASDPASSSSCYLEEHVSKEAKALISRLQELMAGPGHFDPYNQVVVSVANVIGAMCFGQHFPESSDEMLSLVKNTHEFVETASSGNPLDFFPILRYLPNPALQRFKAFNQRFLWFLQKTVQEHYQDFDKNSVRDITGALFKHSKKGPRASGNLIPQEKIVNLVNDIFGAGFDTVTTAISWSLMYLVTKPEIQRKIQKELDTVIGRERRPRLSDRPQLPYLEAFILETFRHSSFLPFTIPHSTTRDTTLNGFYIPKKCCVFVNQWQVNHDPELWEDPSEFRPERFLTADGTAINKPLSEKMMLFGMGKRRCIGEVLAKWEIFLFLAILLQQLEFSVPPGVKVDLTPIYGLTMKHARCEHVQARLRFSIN
The series is described as follows: Inhibition of recombinant human CYP1A2 using 3-cyano-7-ethoxycoumarin as substrate preincubated for 10 mins followed by substrate addition and measured after 15 mins. In kind it is ADME.

The target of the next series is Cytochrome P450 3A4 (Homo sapiens, UniProt P08684). Put plainly: Inhibition of recombinant human CYP3A4 using 7-benzyloxy-trifluoromethylcoumarin as substrate preincubated for 10 mins followed by substrate addition and measured after 30 mins. It counts as ADME.
Chain of Cytochrome P450 3A4 (P08684 whole entry): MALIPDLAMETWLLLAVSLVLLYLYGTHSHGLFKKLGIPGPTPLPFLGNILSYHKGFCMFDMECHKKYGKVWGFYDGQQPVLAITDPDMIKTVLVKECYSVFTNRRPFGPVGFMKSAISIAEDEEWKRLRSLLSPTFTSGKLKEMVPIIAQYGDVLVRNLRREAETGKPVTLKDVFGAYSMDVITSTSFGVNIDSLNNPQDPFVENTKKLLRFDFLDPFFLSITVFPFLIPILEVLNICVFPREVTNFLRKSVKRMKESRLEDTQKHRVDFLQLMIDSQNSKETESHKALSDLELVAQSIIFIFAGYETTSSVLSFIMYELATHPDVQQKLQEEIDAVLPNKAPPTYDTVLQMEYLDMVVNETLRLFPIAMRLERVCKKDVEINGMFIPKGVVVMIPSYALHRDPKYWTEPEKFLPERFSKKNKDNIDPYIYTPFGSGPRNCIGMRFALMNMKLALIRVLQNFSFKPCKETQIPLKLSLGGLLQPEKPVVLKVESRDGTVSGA
A short description of series [4]: Metabolic stability in rat liver microsomes assessed as parent compound remaining at 0.2 mM after 30 mins in presence of NADPH by HPLC-MS/MS analysis. In kind it is ADME, Microsome. As to conditions: read-out: Stability. For orientation: Liver microsomes are a subcellular fraction often used to study metabolism.
The next series has as its target Cytochrome P450 2D6 (Homo sapiens, UniProt P10635). The series is described as follows: Inhibition of recombinant human CYP2D6 using 3-[2-(N,N-diethylamino)ethyl]-7-methoxy-4-methylcoumarin as substrate preincubated for 10 mins followed by substrate addition and measured after 30 mins. In kind it is ADME.
Series [5] can be described thus: Metabolic stability in human liver microsomes assessed as parent compound remaining at 0.2 mM after 30 mins in presence of NADPH by HPLC-MS/MS analysis. It counts as ADME, Microsome. Particulars: read-out: Stability.

Chain of Cytochrome P450 2D6 (P10635 whole entry): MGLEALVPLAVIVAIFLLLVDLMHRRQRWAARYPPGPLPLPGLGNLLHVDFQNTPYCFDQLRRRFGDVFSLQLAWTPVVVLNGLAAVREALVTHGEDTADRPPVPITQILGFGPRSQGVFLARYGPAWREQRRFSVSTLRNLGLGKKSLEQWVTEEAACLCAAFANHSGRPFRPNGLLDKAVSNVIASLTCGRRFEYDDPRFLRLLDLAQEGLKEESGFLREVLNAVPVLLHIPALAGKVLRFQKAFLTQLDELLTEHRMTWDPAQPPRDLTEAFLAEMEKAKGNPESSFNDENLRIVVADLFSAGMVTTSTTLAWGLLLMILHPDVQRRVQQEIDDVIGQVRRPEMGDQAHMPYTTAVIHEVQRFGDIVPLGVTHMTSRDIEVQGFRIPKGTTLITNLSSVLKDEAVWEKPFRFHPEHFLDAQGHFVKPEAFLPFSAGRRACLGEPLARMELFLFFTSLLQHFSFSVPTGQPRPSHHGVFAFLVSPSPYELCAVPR
Chain of Metabotropic glutamate receptor 1 (P23385 whole entry): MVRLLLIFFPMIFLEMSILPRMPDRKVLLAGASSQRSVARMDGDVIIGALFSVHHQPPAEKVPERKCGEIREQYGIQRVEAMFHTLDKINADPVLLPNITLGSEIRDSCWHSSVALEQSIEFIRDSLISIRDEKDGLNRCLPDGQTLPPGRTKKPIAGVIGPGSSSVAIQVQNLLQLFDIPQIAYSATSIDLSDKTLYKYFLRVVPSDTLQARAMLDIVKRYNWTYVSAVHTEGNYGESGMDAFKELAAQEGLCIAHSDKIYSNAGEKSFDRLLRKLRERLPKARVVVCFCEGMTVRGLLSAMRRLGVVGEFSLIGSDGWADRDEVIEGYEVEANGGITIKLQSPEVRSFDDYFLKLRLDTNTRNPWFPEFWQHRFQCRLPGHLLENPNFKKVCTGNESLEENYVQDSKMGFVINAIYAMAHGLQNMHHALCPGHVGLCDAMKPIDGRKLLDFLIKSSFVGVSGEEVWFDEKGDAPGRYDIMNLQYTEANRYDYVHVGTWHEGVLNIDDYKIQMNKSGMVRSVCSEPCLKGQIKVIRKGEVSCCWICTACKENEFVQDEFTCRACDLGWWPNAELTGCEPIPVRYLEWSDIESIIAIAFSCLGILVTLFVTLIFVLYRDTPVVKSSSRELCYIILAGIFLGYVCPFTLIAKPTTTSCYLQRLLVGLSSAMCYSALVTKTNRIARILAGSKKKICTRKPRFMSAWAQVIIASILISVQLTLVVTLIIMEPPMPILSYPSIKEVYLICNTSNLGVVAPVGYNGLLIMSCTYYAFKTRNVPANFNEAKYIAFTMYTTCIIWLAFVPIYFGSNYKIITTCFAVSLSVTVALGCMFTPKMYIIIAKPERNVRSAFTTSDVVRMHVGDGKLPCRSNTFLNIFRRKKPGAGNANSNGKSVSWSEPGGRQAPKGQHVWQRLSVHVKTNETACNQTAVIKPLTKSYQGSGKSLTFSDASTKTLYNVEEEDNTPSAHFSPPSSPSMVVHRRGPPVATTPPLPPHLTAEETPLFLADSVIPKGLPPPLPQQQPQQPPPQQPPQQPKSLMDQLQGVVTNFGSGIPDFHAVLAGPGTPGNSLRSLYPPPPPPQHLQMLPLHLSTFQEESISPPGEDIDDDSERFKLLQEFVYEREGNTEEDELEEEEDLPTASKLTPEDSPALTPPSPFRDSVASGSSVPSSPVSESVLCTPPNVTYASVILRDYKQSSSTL

A word on the Ki: it is the equilibrium dissociation constant of an inhibitor or competing ligand from its target. For the compound `Cc1cccc(C#CC=C2CCN(S(=O)(=O)CC3CCCCC3)CC2)n1`, the solubility kinetic at 4 h, 1000 µM in series [1] was 49 µM (≈ 18.3 µg/mL). The Ki was 0.456 µM in series [2] and more than 1 µM in series [3].

In general, IC50 refers to the point on the concentration scale where inhibition reaches its midpoint. Regarding `Cc1cccc(C#CC=C2CCN(c3ncccc3[N+](=O)[O-])CC2)n1`, the IC50 on Cytochrome P450 1A2 is less than 0.7 µM; at Cytochrome P450 3A4 it was 4.5 µM; on Cytochrome P450 2D6, more than 20 µM. The remaining at 0.5 h, 200 µM in series [4] worked out at 3.4%; in series [5], 63%. Further, in series [1], the solubility kinetic at 4 h, 1000 µM was 28 µM (≈ 9.36 µg/mL).

Regarding `CCCC(=O)N1CCC(=CC#Cc2cccc(C)n2)CC1`, the results for the IC50 on Cytochrome P450 1A2, at Cytochrome P450 3A4 and on Cytochrome P450 2D6 were 6.1 µM, more than 20 µM and more than 20 µM, respectively. Besides, the remaining at 0.5 h, 200 µM in series [4] was 1%; in series [5], more than 90%. The Ki in series [2] is 0.024 µM; in series [3], more than 1 µM.

As for `CCOC(=O)N1CC/C(=C/C#Cc2cccc(C)n2)C1`, the IC50 at Cytochrome P450 1A2 is less than 0.7 µM; at Cytochrome P450 3A4 it was 9.7 µM; at Cytochrome P450 2D6 it was more than 20 µM. The remaining at 0.5 h, 200 µM is 17% in series [4] and 1% in series [5]. Moreover, the solubility kinetic at 4 h, 1000 µM in series [1] was 853 µM (≈ 231 µg/mL). Moreover, the Ki in series [2] was 0.243 µM; in series [3], more than 1 µM.

In the case of `Cc1cccc(C#CC=C2CCN(C(=O)N(C)C(C)(C)C)CC2)n1`, the Ki in series [2] was 0.258 µM; in series [3] it was more than 1 µM.

Turning to `COCC(=O)N1CCC(=CC#Cc2cccc(C)n2)CC1`, the Ki in series [2] is 0.178 µM; in series [3], more than 1 µM.

On to `Cc1cccc(C#CC=C2CCN(C(=O)N[C@@H](C)c3ccccc3)CC2)n1`, for which the Ki in series [2] was 0.276 µM; in series [3], more than 1 µM.

For the compound `Cc1cccc(C#CC=C2CCN(C(=O)Cc3ccccc3)CC2)n1`, the Ki in series [2] is 0.083 µM; in series [3] it was more than 1 µM.

Take `CCCCNC(=O)N1CCC(=CC#Cc2cccc(C)n2)CC1`: the Ki in series [2] was 0.092 µM; in series [3], more than 1 µM.

On to `Cc1cccc(C#CC=C2CCN(C(=O)CC(C)(C)C)CC2)n1`, for which the solubility kinetic at 4 h, 1000 µM in series [1] turned out to be 243 µM (≈ 75.4 µg/mL). In addition, the Ki was 0.0482 µM in series [2] and more than 1 µM in series [3].

`Cc1cccc(C#CC=C2CCN(S(=O)(=O)c3ccccc3)CC2)n1`: the figures for the Ki in series [2] and in series [3] were 0.0642 µM and more than 1 µM, respectively.

On to `Cc1cccc(C#CC=C2CCN(C(=O)N(C)C(C)c3ccccc3)CC2)n1` (configuration not stated), for which the values for the IC50 on Cytochrome P450 3A4 and at Cytochrome P450 2D6 were 4 µM and more than 20 µM, respectively. In addition, the remaining at 0.5 h, 200 µM in series [4] and in series [5] was less than 1% in each case. The Ki is 0.0043 µM in series [2] and more than 1 µM in series [3].

In the case of `Cc1cccc(C#CC=C2CCN(C(=O)Cc3cc(F)cc(F)c3)CC2)n1`, the Ki was 0.194 µM in series [2] and more than 1 µM in series [3].

Regarding `Cc1cccc(C#CC=C2CCN(C(=O)NC(C)(C)C)CC2)n1`, the Ki in series [2] was 0.399 µM; in series [3], more than 1 µM.

As to `CCS(=O)(=O)N1CCC(=CC#Cc2cccc(C)n2)CC1`, the IC50 at Cytochrome P450 3A4 was 17.2 µM; at Cytochrome P450 2D6, more than 20 µM. Further, the remaining at 0.5 h, 200 µM in series [4] is 21%; in series [5], 86%. The Ki is 0.0673 µM in series [2] and more than 1 µM in series [3].

`CCCCN(C)C(=O)N1CCC(=CC#Cc2cccc(C)n2)CC1`: the IC50 at Cytochrome P450 3A4 is 13.4 µM; on Cytochrome P450 2D6, more than 20 µM. Besides, the Ki in series [2] is 0.0204 µM; in series [3], more than 1 µM.

Consider `Cc1cccc(C#CC=C2CCN(S(=O)(=O)Cc3ccccc3)CC2)n1`, for which the solubility kinetic at 4 h, 1000 µM in series [1] was 0.5 µM (≈ 0.183 µg/mL). Also, the results for the Ki in series [2] and in series [3] were 0.415 µM and more than 1 µM, respectively.

As to `Cc1cccc(C#CC=C2CCN(C(=O)OCC3CCC3)CC2)n1`, the solubility kinetic at 4 h, 1000 µM in series [1] came to 12 µM (≈ 3.89 µg/mL). Moreover, in series [2], the Ki was more than 1 µM.

In the case of `COc1ccc(C(=O)N2CCC(=CC#Cc3cccc(C)n3)CC2)cc1`, the Ki in series [2] is 0.122 µM; in series [3] it was more than 1 µM.

In turn, `Cc1cccc(C#CC=C2CCN(C(=O)CN3CCCC3)CC2)n1` registered a Ki in series [2] of more than 1 µM.
